System: human monocytes (THP-1 cell line)
Test: multiplex functional cell-based HTS assay (5-plex): expression of co-stimulatory molecules and cytokines by THP-1 monocytes
Design: IL-8 / RANTES / TNFα: unit not given here
Conditions: THP-1 cells incubated overnight with 10^-5M test compound; for IL-8 / RANTES / TNFα: concentration in cell culture supernatant, Luminex, mean of two wells; for CD54 / CD80: flow cytometry, specific staining (MFI minus isotype control MFI)
Procedure: Test compounds/candidate agents were diluted in 100% DMSO at a concentration of 10^−2M and stored in 96 well “matrix” plates at −80° C. These compound stocks were employed as a pool of mother plates. Compounds to be assayed were diluted 100 times in sterile PBS using a liquid handling robot “Evolution P3” (PerkinElmer) to a concentration of 10^−4M, and stored at −20° C. until they were used for the assay. In total, 20,000 candidate agents were tested.
10^5 THP-1 cells were incubated overnight with 10^−5M of test compound (20 μl of 10^−4M compound stock solution was added to 180 μl of the cells suspension). Incubations were carried out in U bottom 96 well tissue culture plates. Each compound was tested in duplicate. Collection of the cell culture supernatants and cell surface receptor staining were carried out using the “Biomek 2000” liquid handling robot (Becton Coulter).
Expression of cell surface receptors was analyzed by flow cytometry using the following antibodies: PE-conjugated anti-human CD80 and APC conjugated anti-human CD54 (ICAM-1) and matching labeled isotype controls, all from BD Pharmingen. Cells in the first well of each duplicate were stained with isotype controls (IC). In the second well, cells were stained with CD80 and CD54 antibodies. Stained cells were analyzed on a flow cytometer (FACSArray cytometer (BD Pharmingen)). The mean fluorescence intensity (MFI) for IC and CD80/CD54 antibodies stained cells were determined using “FlowJo” software (Tree Star, Inc.). The IC MFIs were subtracted from CD80/CD54 MFIs and results were recorded as specific staining and used for the following data analysis.
The concentrations of IL-8, RANTES and TNFα in cell culture supernatants were determined for each well of the duplicates using the “Fluorokine MultiAnalyte Profiling” kits (R&D Systems). Samples were analyzed on the Luminex 100IS system and data analysis was performed using Luminex 2.3IS software (both from Luminex corporation). The mean value of two wells was recorded and used for the following data analysis.
To identify agents that stimulate the innate immune system, a multiplex functional cell-based assay was used. The assay used human monocytes (THP-1 cell line) as target cells and expression of co-stimulatory molecules (CD54 and CD80) and immune-activating cytokines (IL-8, RANTES and TNFα) as assay readouts. These molecules play major role in the innate immune response and are required for effective activation of the adaptive immune system.

COc1cc2c(c(OC)c1OC)-c1ccc(OC)c(=O)cc1[C@@H](NC(C)=O)CC2 [Colchicine]
IL-8: 7499.42 | RANTES: 4383.62 | TNFα: 66.37 | CD54: 554.50 | CD80: 3.69

CN[C@H]1CCc2cc(OC)c(OC)c(OC)c2-c2ccc(OC)c(=O)cc21 [Demecolcine]
IL-8: 2533.58 | RANTES: 740.62 | TNFα: 95.20 | CD54: 600.87 | CD80: 4.91

CC[C@]1(O)C[C@@H]2CN(CCc3c([nH]c4ccccc34)[C@@](C(=O)OC)(c3cc4c(cc3OC)N(C)[C@H]3[C@@](O)(C(=O)OC)[C@H](OC(C)=O)[C@]5(CC)C=CCN6CC[C@]43[C@@H]65)C2)C1 [Vinblastine]
IL-8: 6543.63 | RANTES: 4568.01 | TNFα: 78.47 | CD54: 665.18 | CD80: 3.89

CC[C@]1(O)C[C@H]2CN(CCc3c([nH]c4ccccc34)[C@@](C(=O)OC)(c3cc4c(cc3OC)N(C=O)[C@H]3[C@@](O)(C(=O)OC)[C@H](OC(C)=O)[C@]5(CC)C=CCN6CC[C@]43[C@@H]65)C2)C1 [Vincristine]
IL-8: 8334.51 | RANTES: 5232.60 | TNFα: 88.30 | CD54: 814.96 | CD80: 3.90

bacterial lipopolisaccharide [LPS]
IL-8: 13562.99 | RANTES: 3217.60 | TNFα: 866.78 | CD54: 3662.56 | CD80: 64.12

From patent US20070059319A1, “Methods of screening for immuno-adjuvants and vaccines comprising anti-microtubule immuno-adjuvants” (Caliper Life Sciences, Inc., priority 2005, published 2007)
